Several values for one entry are separate records, joined by “and”; a condition that tells them apart may be missing. Equal values may be shown once. Read-outs that look alike come from different tables or passages of the source.
Assays:
OX2R F346A = target: T1, OX2R F346A (Homo sapiens, UniProt O43614, F346A); experiment: β-arrestin PathHunter assay, OX2R F346A; format: cell-based; settings: β-arrestin recruitment
T1 construct: expressed in transfected cells; host or cells: CHO-K1 stably expressing EA β-arrestin2
T1 sequence (O43614 whole entry F346A): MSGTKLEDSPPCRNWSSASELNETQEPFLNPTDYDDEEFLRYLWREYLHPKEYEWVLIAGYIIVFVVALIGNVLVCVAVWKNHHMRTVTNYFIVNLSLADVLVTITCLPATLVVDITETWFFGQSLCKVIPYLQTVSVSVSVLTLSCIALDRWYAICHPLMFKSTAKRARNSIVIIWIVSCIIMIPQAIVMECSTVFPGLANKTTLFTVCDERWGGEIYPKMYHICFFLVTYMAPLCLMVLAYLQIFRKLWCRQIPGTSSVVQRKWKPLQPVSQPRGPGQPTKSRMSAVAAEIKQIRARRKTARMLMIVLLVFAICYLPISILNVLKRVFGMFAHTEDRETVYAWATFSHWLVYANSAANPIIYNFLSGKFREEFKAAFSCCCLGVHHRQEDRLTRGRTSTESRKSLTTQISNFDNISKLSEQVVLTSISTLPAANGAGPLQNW
Experimental: (§1) β-Arrestin recruitment activity was measured by using the PathHunter system (DiscoveRX) according to the manufacturer’s instruction. Receptor constructs used were the full-length wild-type (or mutant) human OX2R sequences cloned into pCMV-ProLink (DiscoveRX). CHO-K1 cells stably expressing EA β-arrestin2 (DiscoveRX) were plated on 384 well white plates (Thermo Fisher) at 4000 cells/well in HamF12 (Wako Pure Chemical Industries) supplemented with 10% fetal bovine serum (Corning) and penicillin-streptomycin (Wako Pure Chemical Industries) and incubated overnight at 37 °C under 5% CO2. Cells were transfected with plasmids encoding wild type or each mutant ProLink-tagged human OX2R using FuGENE HD (Promega). […] Detection reagent was added and incubated for 1 h at room temperature. Luminescent signal was detected using an EnVision plate reader (PerkinElmer). β-arrestin assays on different constructs were performed in two or three independent experiments (each done in quadruplicate). Dose response curves (shown in Supplementary Fig. 8) were fitted to the three-parameter model ‘log(agonist) vs response’ in GraphPad Prism to determine pEC50 values.

OX1R A127T = target: T2, OX1R A127T (Homo sapiens, UniProt O43613, A127T); experiment: IP accumulation assay, OX1R A127T; format: cell-based
T2 construct: FLAG; expressed in transfected cells; host or cells: HEK293
T2 sequence (O43613 1-425 A127T): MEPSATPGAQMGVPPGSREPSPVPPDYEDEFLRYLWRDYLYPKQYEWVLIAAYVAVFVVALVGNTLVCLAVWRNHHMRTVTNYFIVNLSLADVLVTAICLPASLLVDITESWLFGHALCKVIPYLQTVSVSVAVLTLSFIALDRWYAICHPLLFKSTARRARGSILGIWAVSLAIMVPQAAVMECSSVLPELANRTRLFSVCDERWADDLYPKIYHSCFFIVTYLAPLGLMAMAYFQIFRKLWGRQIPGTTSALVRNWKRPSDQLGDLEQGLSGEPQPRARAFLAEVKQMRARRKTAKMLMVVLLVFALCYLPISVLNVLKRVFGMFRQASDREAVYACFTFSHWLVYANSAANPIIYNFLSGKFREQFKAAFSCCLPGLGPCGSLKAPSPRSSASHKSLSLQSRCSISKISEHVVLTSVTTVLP
Excerpt: (§2) The IP assay was adapted from a prior precedent. HEK293 cells were maintained in DMEM-high glucose (Millipore Sigma) supplemented with 5% fetal bovine serum (Corning) and penicillin-streptomycin (Millipore Sigma). Receptor constructs used were the full-length wild-type (or mutant) human OX1R and OX2R sequences cloned into pCDNA3. To enhance the Emax in the IP assay, a plasmid encoding full-length human Gαq subunit[66] was co-transfected into HEK293 cells with plasmids encoding orexin receptor constructs using Lipofectamine 3000 (Thermo Fisher). 24 h after transfection, the cells were plated on poly-D-lysine coated (Millipore Sigma) tissue culture-treated 96 well white plates with clear bottoms (Perkin Elmer) at 30,000 cells per well in Inositol-free DMEM (MP Biomedicals) supplemented with 5% fetal bovine serum, 4 mM L-glutamine (Millipore Sigma), penicillin-streptomycin, and about 5 uCi (5 ul) per ml myo-[2-3H] inositol (Perkin Elmer). The following day, the media was replaced with agonists that were diluted in HBSS (Millipore Sigma) containing 10 mM lithium chloride (Millipore Sigma) and incubated at 37 °C for 45 min. Then agonists were removed and cells were lysed on ice for 30 min with 10 mM formic acid (Millipore Sigma). 1.25 mg of poly-lysine coated YSI SPA beads (Perkin Elmer) was added to each well. The plates were mixed on an orbital shaker for 30 min. The plates were read on a MicroBeta scintillation counter (Perkin Elmer) the following day. IP accumulation assays on different constructs were performed in n ≥ 3 independent experiments (each done in duplicate), where n is shown in Supplementary Table 2.

OX2R Q187A = target: T3, OX2R Q187A (Homo sapiens, UniProt O43614, Q187A); experiment: β-arrestin PathHunter assay, OX2R Q187A; format: cell-based; settings: β-arrestin recruitment
T3 construct: expressed in transfected cells; host or cells: CHO-K1 stably expressing EA β-arrestin2
T3 sequence (O43614 whole entry Q187A): as the sequence (O43614 whole entry F346A) above, with Q187A, A346F counted along it
Experimental: as §1

OX2R K327A = target: T4, OX2R K327A (Homo sapiens, UniProt O43614, K327A); experiment: β-arrestin PathHunter assay, OX2R K327A; format: cell-based; settings: β-arrestin recruitment
T4 construct: expressed in transfected cells; host or cells: CHO-K1 stably expressing EA β-arrestin2
T4 sequence (O43614 whole entry K327A): as the sequence (O43614 whole entry F346A) above, with K327A, A346F counted along it
Experimental: as §1

OX2R T111S/T135A = target: T5, OX2R T111S/T135A (Homo sapiens, UniProt O43614, T111S/T135A); experiment: IP accumulation assay, OX2R T111S/T135A; format: cell-based; settings: for EC50: IP accumulation
T5 construct: FLAG; expressed in transfected cells; host or cells: HEK293
T5 sequence (O43614 1-444 T111S/T135A): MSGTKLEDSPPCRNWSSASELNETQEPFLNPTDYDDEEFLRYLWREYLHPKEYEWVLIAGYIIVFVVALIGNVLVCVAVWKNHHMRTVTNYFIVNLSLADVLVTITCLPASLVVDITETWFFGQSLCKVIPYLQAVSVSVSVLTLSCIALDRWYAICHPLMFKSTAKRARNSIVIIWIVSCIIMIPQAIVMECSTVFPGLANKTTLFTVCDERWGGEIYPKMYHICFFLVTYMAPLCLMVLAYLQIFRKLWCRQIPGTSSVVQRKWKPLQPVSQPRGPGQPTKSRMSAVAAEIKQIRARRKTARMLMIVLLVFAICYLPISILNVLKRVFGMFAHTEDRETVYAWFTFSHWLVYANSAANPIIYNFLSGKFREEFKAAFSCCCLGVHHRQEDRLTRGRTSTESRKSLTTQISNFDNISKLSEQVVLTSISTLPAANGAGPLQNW
Excerpt: as §2

OX2R = settings: cited from earlier work
OX2R Y232A = target: T6, OX2R Y232A (Homo sapiens, UniProt O43614, Y232A); experiment: β-arrestin PathHunter assay, OX2R Y232A; format: cell-based; settings: β-arrestin recruitment
T6 construct: expressed in transfected cells; host or cells: CHO-K1 stably expressing EA β-arrestin2
T6 sequence (O43614 whole entry Y232A): as the sequence (O43614 whole entry F346A) above, with Y232A, A346F counted along it
Experimental: as §1

OX2R W120A = target: T7, OX2R W120A (Homo sapiens, UniProt O43614, W120A); experiment: β-arrestin PathHunter assay, OX2R W120A; format: cell-based; settings: β-arrestin recruitment
T7 construct: expressed in transfected cells; host or cells: CHO-K1 stably expressing EA β-arrestin2
T7 sequence (O43614 whole entry W120A): as the sequence (O43614 whole entry F346A) above, with W120A, A346F counted along it
Experimental: as §1

wakefulness = settings: subcutaneous delivery during the sleep period; cited from earlier work

EC50 (OX2R F346A): 0.35 µM
activation at 100 µM (OX1R A127T; 0.75 h, TAK-925 conc (log, M) -4.00): 109%
activation at 33.1 µM (OX1R A127T; 0.75 h, TAK-925 conc (log, M) -4.48): 92.5%
activation at 11.2 µM (OX1R A127T; 0.75 h, TAK-925 conc (log, M) -4.95): 78.5%
activation at 3.72 µM (OX1R A127T; 0.75 h, TAK-925 conc (log, M) -5.43): 56%
activation at 1.23 µM (OX1R A127T; 0.75 h, TAK-925 conc (log, M) -5.91): 27.7%
activation at 0.407 µM (OX1R A127T; 0.75 h, TAK-925 conc (log, M) -6.39): 18.7%
activation at 0.0457 µM (OX1R A127T; 0.75 h, TAK-925 conc (log, M) -7.34): 12%
activation at 0.0151 µM (OX1R A127T; 0.75 h, TAK-925 conc (log, M) -7.82): 13.1%
activation at 0.0017 µM (OX1R A127T; 0.75 h, TAK-925 conc (log, M) -8.77): 0%
EC50 (OX1R A127T; IP accumulation): 4.7 µM
% IP accumulation (OX1R A127T; TAK-925 conc (log, M) -8.77): 0.00%
Emax (OX1R A127T; relative to OX1R S103T/A127T/TAK-925): 100
EC50 (OX2R Q187A): 3.2 µM
EC50 (OX2R K327A): 2.3 µM
EC50 (OX2R T111S/T135A; pEC50 ± SEM, read-out: pEC50 (converted)): 3.98 µM
EC50 (OX2R T111S/T135A; read-out: EC50): 3.6 µM
% IP accumulation (OX2R T111S/T135A; TAK-925 conc (log, M) -4.00): 75.61% and 80.32% and 68.16%
% IP accumulation (OX2R T111S/T135A; TAK-925 conc (log, M) -4.48): 79.41% and 78.58% and 59.24%
% IP accumulation (OX2R T111S/T135A; TAK-925 conc (log, M) -4.95): 63.00% and 60.94% and 53.37%
% IP accumulation (OX2R T111S/T135A; TAK-925 conc (log, M) -5.43): 45.74% and 44.90% and 36.03%
% IP accumulation (OX2R T111S/T135A; TAK-925 conc (log, M) -5.91): 30.51% and 19.14% and 15.90%
% IP accumulation (OX2R T111S/T135A; TAK-925 conc (log, M) -6.39): 18.69% and 18.10% and 13.23%
% IP accumulation (OX2R T111S/T135A; TAK-925 conc (log, M) -8.29): 6.54% and 0.00%
% IP accumulation (OX2R T111S/T135A; TAK-925 conc (log, M) -8.77): 0.00% and 2.28% and 1.85%
Emax (OX2R T111S/T135A; relative to OX2R WT/TAK-925): 78
EC50 (OX2R Y232A): 8.5 µM
EC50 (OX2R W120A; read-out: EC50): > 30 µM
EC50 (OX2R W120A; read-out: pEC50 (converted)): > 30.2 µM
Compound: COC(=O)N1CCC[C@H](NS(C)(=O)=O)[C@@H]1CO[C@H]1CC[C@@H](c2ccccc2)CC1 [TAK-925, methyl (2R,3S)−3-[(methylsulfonyl)amino]−2-{[(cis−4-phenylcyclohexyl)oxy]methyl}piperidine-1-carboxylate]
potency for OX2R activation (OX2R): low-nanomolar
wakefulness and sleep time (wakefulness): dose-dependent increase in wakefulness and reduction in sleep time
